Holding throughout (format): functional
Test [1] relates to Amaranthus retroflexus. The experiment in a line: Herbicidal activity against Amaranthus retroflexus assessed as inhibition of herb growth at 1.5 kg/ha during postemergence treatment protocol. The conditions noted are these: post-emergence, read-out: GI.
In test [2] the test system is Digitaria sanguinalis. Kind of test: Herbicidal activity against hairy Digitaria sanguinalis (hairy crabgrass) assessed as inhibition of herb growth at 1.5 kg/ha during postemergence treatment protocol. The settings on record: post-emergence, read-out: GI.
Test [3] deals with Medicago sativa. The experiment in a line: Herbicidal activity against Medicago sativa (alfalfa) assessed as inhibition of herb growth at 1.5 kg/ha during postemergence treatment protocol. The conditions noted are these: post-emergence, read-out: GI.
Test [4] has as its system Brassica napus. Kind of test: Herbicidal activity against Brassica napus (oilseed rape) assessed as inhibition of herb growth at 1.5 kg/ha during postemergence treatment protocol. The conditions noted are these: post-emergence, read-out: GI.
Test [5] deals with Medicago sativa. Kind of test: Herbicidal activity against Medicago sativa (alfalfa) assessed as inhibition of herb growth at 1.5 kg/ha during preemergence treatment protocol. The conditions noted are these: pre-emergence, read-out: GI.
A further test concerns Cucumis sativus. The experiment in a line: Plant growth regulatory activity in Cucumis sativus (cucumber) seeds assessed as stimulation of radicle growth level at 10 mg/mL.
The subject of test [6] is Brassica napus. The experiment in a line: Herbicidal activity against Brassica napus (oilseed rape) assessed as inhibition of herb growth at 1.5 kg/ha during preemergence treatment protocol. The settings on record: pre-emergence, read-out: GI.
The test system of test [7] is Digitaria sanguinalis. The experiment in a line: Herbicidal activity against hairy Digitaria sanguinalis (hairy crabgrass) assessed as inhibition of herb growth at 1.5 kg/ha during preemergence treatment protocol. The conditions noted are these: pre-emergence, read-out: GI.
Test [8] deals with Amaranthus retroflexus. The experiment in a line: Herbicidal activity against Amaranthus retroflexus assessed as inhibition of herb growth at 1.5 kg/ha during preemergence treatment protocol. The conditions noted are these: pre-emergence, read-out: GI.

For `CCOCCOC(=O)/C(C#N)=C(\NCc1ccc2ccccc2n1)C(C)C`, the inhibition of growth at 1500 g/ha in the test on Amaranthus retroflexus [1] is 77.8%; in the test with Digitaria sanguinalis [2], 50.6%; with Medicago sativa [3], 0%; in the test on Brassica napus [4], 72%; in the test with Medicago sativa [5], 0%; in the test on Brassica napus [6] it was 0%. In addition, the inhibition of growth at 1500 g/ha in the test on Digitaria sanguinalis [7] and in the test with Amaranthus retroflexus [8] was 0% each time. Besides, the Activity in the test on Cucumis sativus came out at 115%.

For `CCOCCOC(=O)/C(C#N)=C(\NCc1ccc2ncccc2c1)SC`, the inhibition of growth at 1500 g/ha came out at 100% with Amaranthus retroflexus [1]; 66.2% in the test with Digitaria sanguinalis [2]; 0% in the test on Medicago sativa [3]; 100% with Brassica napus [4]; 0% with Medicago sativa [5]; 10% with Brassica napus [6]. In addition, the inhibition of growth at 1500 g/ha in the test with Digitaria sanguinalis [7] is 10%; with Amaranthus retroflexus [8], 0%. In addition, in the test on Cucumis sativus, the Activity turned out to be 145%.

Regarding `CCOCCOC(=O)/C(C#N)=C(\NCc1ccc2ncccc2c1)C(C)C`, the inhibition of growth at 1500 g/ha with Amaranthus retroflexus [1] was 0%; with Digitaria sanguinalis [2], 0%; in the test on Medicago sativa [3] it was 10%; in the test on Brassica napus [4], 73.7%; with Medicago sativa [5] it was 0%; in the test with Brassica napus [6] it was 0%. Moreover, the inhibition of growth at 1500 g/ha with Digitaria sanguinalis [7] and in the test on Amaranthus retroflexus [8] was 0% throughout. For the same molecule, the Activity in the test on Cucumis sativus was 85%.

Take `CCOCCOC(=O)/C(C#N)=C(\NCc1cnc2ccccc2c1)C(C)C`: the inhibition of growth at 1500 g/ha in the test on Amaranthus retroflexus [1] turned out to be 100%; in the test with Digitaria sanguinalis [2] it was 45.5%; with Medicago sativa [3], 0%; with Brassica napus [4] it was 100%; in the test with Medicago sativa [5], 0%; with Brassica napus [6] it was 18.2%. In addition, the results for the inhibition of growth at 1500 g/ha with Digitaria sanguinalis [7] and in the test with Amaranthus retroflexus [8] were 0% and 41.9%, respectively. Also, in the test with Cucumis sativus, the Activity turned out to be 85%.

`CCOCCOC(=O)/C(C#N)=C(\NCc1cnc2ccccc2c1)SC`: the inhibition of growth at 1500 g/ha in the test with Amaranthus retroflexus [1] turned out to be 100%; in the test with Digitaria sanguinalis [2], 48.1%; in the test on Medicago sativa [3] it was 67.8%; with Brassica napus [4] it was 100%; in the test on Medicago sativa [5] it was 10%; in the test with Brassica napus [6], 74.9%. The inhibition of growth at 1500 g/ha is 0% in the test on Digitaria sanguinalis [7] and 35.5% in the test with Amaranthus retroflexus [8]. For the same molecule, the Activity in the test on Cucumis sativus stood at 110%.

Regarding `CCOCCOC(=O)/C(C#N)=C(\NCc1coc(-c2ccccc2)n1)SC`, the inhibition of growth at 1500 g/ha with Amaranthus retroflexus [1] was determined as 0%; in the test on Digitaria sanguinalis [2] it was 0%; in the test on Medicago sativa [3] it was 0%; with Brassica napus [4], 34.7%; in the test with Medicago sativa [5], 5%; in the test on Brassica napus [6], 5%. The figures for the inhibition of growth at 1500 g/ha in the test on Digitaria sanguinalis [7] and in the test with Amaranthus retroflexus [8] were 0% and 5%, respectively. Further, in the test with Cucumis sativus, the Activity worked out at 50%.

On to `CCOCCOC(=O)/C(C#N)=C(\NCc1coc(-c2ccccc2)n1)C(C)C`, for which the inhibition of growth at 1500 g/ha in the test on Amaranthus retroflexus [1] amounted to 71.4%; in the test with Digitaria sanguinalis [2], 87%; in the test with Medicago sativa [3] it was 0%; with Brassica napus [4], 87.3%; in the test with Medicago sativa [5], 0%; in the test with Brassica napus [6] it was 0%. The inhibition of growth at 1500 g/ha in the test on Digitaria sanguinalis [7] is 5%; in the test with Amaranthus retroflexus [8] it was 10%. In addition, the Activity in the test on Cucumis sativus is given as 60%.

As for `CCOCCOC(=O)/C(C#N)=C(\NCc1coc(-c2cccc(Cl)c2)n1)SC`, the inhibition of growth at 1500 g/ha in the test on Amaranthus retroflexus [1] was determined as 0%; with Digitaria sanguinalis [2], 6.5%; with Medicago sativa [3], 0%; with Brassica napus [4], 25.4%; in the test with Medicago sativa [5], 10%; in the test on Brassica napus [6] it was 0%. Also, the inhibition of growth at 1500 g/ha with Digitaria sanguinalis [7] and in the test with Amaranthus retroflexus [8] was 0% throughout. For the same molecule, the Activity in the test on Cucumis sativus came to 80%.

As for `CCOCCOC(=O)/C(C#N)=C(\NCc1coc(-c2cccc(Cl)c2)n1)C(C)C`, the inhibition of growth at 1500 g/ha in the test with Amaranthus retroflexus [1] turned out to be 84.1%; with Digitaria sanguinalis [2] it was 0%; in the test with Medicago sativa [3], 0%; with Brassica napus [4] it was 80.5%; in the test on Medicago sativa [5], 5%; in the test with Brassica napus [6], 15%. Further, the inhibition of growth at 1500 g/ha in the test with Digitaria sanguinalis [7] and in the test on Amaranthus retroflexus [8] was 0% each time.

As to `CCOCCOC(=O)/C(C#N)=C(\NCc1ncc(C)o1)SC`, the inhibition of growth at 1500 g/ha came out at 100% in the test with Amaranthus retroflexus [1]; 10% in the test on Digitaria sanguinalis [2]; 0% in the test with Medicago sativa [3]; 10% in the test on Brassica napus [4]; 0% with Medicago sativa [5]; 0% in the test on Brassica napus [6]. The inhibition of growth at 1500 g/ha was 0% in the test with Digitaria sanguinalis [7] and 43.9% in the test on Amaranthus retroflexus [8].

For `CCOCCOC(=O)/C(C#N)=C(\NCc1ncc(C(C)C)o1)SC`, the inhibition of growth at 1500 g/ha was found to be 26.8% in the test with Amaranthus retroflexus [1]; 0% with Digitaria sanguinalis [2]; 0% in the test with Medicago sativa [3]; 5% with Brassica napus [4]; 0% in the test on Medicago sativa [5]; 10% in the test on Brassica napus [6]. Besides, the inhibition of growth at 1500 g/ha is 0% with Digitaria sanguinalis [7] and 5% with Amaranthus retroflexus [8]. The Activity in the test on Cucumis sativus is given as 63.7%.

For `CCOCCOC(=O)/C(C#N)=C(\NCc1ncc(C(C)C)o1)C(C)C`, the inhibition of growth at 1500 g/ha turned out to be 80.5% with Amaranthus retroflexus [1]; 10% with Digitaria sanguinalis [2]; 15% with Medicago sativa [3]; 100% with Brassica napus [4]; 0% in the test with Medicago sativa [5]; 52.7% with Brassica napus [6]. Also, the inhibition of growth at 1500 g/ha with Digitaria sanguinalis [7] and in the test on Amaranthus retroflexus [8] was 0% throughout. Further, the Activity in the test on Cucumis sativus stood at 98.2%.

In the case of `CCOCCOC(=O)/C(C#N)=C(\NCc1nc(-c2ccc(C(F)(F)F)cc2)no1)SC`, the inhibition of growth at 1500 g/ha in the test on Amaranthus retroflexus [1] is 0%; in the test on Digitaria sanguinalis [2] it was 37.5%; with Medicago sativa [3], 0%; with Brassica napus [4] it was 100%; with Medicago sativa [5] it was 0%; in the test with Brassica napus [6], 0%. Also, the inhibition of growth at 1500 g/ha in the test with Digitaria sanguinalis [7] and in the test on Amaranthus retroflexus [8] was 0% in each case.

Regarding `CCOCCOC(=O)/C(C#N)=C(\NCc1nc(-c2ccc(C(F)(F)F)cc2)no1)C(C)C`, the inhibition of growth at 1500 g/ha is 100% in the test with Amaranthus retroflexus [1]; 57.5% with Digitaria sanguinalis [2]; 43.2% in the test with Medicago sativa [3]; 100% with Brassica napus [4]; 0% in the test on Medicago sativa [5]; 48.4% in the test on Brassica napus [6]. Further, the inhibition of growth at 1500 g/ha amounted to 10% with Digitaria sanguinalis [7] and 50.3% with Amaranthus retroflexus [8].

As for `CCOCCOC(=O)/C(C#N)=C(\NCc1nc(-c2ccc(F)cc2)no1)SC`, the inhibition of growth at 1500 g/ha with Amaranthus retroflexus [1] is 0%; with Digitaria sanguinalis [2] it was 10%; with Medicago sativa [3] it was 0%; with Brassica napus [4] it was 15%; in the test with Medicago sativa [5], 0%; with Brassica napus [6], 10%. Also, the inhibition of growth at 1500 g/ha in the test with Digitaria sanguinalis [7] and in the test with Amaranthus retroflexus [8] was 0% each time.

Regarding `CCOCCOC(=O)/C(C#N)=C(\NCc1nc(-c2ccc(F)cc2)no1)C(C)C`, the inhibition of growth at 1500 g/ha turned out to be 100% in the test with Amaranthus retroflexus [1]; 82.5% in the test on Digitaria sanguinalis [2]; 10% in the test on Medicago sativa [3]; 100% in the test on Brassica napus [4]; 0% in the test with Medicago sativa [5]; 88% with Brassica napus [6]. Further, the inhibition of growth at 1500 g/ha with Digitaria sanguinalis [7] and with Amaranthus retroflexus [8] was 0% throughout.

In the case of `CCOCCOC(=O)/C(C#N)=C(/CC)NCc1nc(-c2ccc(F)cc2)no1`, the inhibition of growth at 1500 g/ha was 0% in the test on Amaranthus retroflexus [1]; 0% in the test with Digitaria sanguinalis [2]; 0% with Medicago sativa [3]; 0% in the test on Brassica napus [4]; 0% with Medicago sativa [5]; 15% with Brassica napus [6]. Also, the inhibition of growth at 1500 g/ha with Digitaria sanguinalis [7] and with Amaranthus retroflexus [8] was 0% each time.

As for `CCOCCOC(=O)/C(C#N)=C(\NCc1ccc2ccccc2n1)SC`, the inhibition of growth at 1500 g/ha in the test on Amaranthus retroflexus [1] was found to be 0%; in the test with Digitaria sanguinalis [2], 0%; with Medicago sativa [3], 15%; with Brassica napus [4] it was 35.6%; with Medicago sativa [5], 0%; in the test on Brassica napus [6], 0%. Besides, the inhibition of growth at 1500 g/ha with Digitaria sanguinalis [7] and in the test with Amaranthus retroflexus [8] was 0% each time. Further, the Activity in the test with Cucumis sativus turned out to be 60%.

Take `CCOCCOC(=O)/C(C#N)=C(/CC)NCc1ccc2ccccc2n1`: the inhibition of growth at 1500 g/ha in the test with Amaranthus retroflexus [1] stood at 0%; in the test on Digitaria sanguinalis [2], 0%; in the test on Medicago sativa [3], 0%; in the test with Brassica napus [4] it was 8.5%; with Medicago sativa [5], 0%; in the test with Brassica napus [6] it was 0%. Also, the inhibition of growth at 1500 g/ha worked out at 0% with Digitaria sanguinalis [7] and 20% in the test with Amaranthus retroflexus [8]. In the test with Cucumis sativus, the Activity is 95.4%.

The values above are taken from ChEMBL document CHEMBL3045368, “Design, synthesis, and biological activities of novel 2-cyanoacrylates containing oxazole, oxadiazole, or quinoline moieties” (2009).
